The values below come from publication PMC6652808, “The Inhibitory Effect of GlmU Acetyltransferase Inhibitor TPSA on Mycobacterium tuberculosis May Be Affected Due to Its Methylation by Methyltransferase Rv0560c” (Frontiers in Cellular and Infection Microbiology, 2019).

In this assay the target is GlmU (Mycobacterium tuberculosis, UniProt P9WMN3). Description: […]; double reciprocal plots; […]. In kind it is biochemical.
Sequence of GlmU (P9WMN3 2-495): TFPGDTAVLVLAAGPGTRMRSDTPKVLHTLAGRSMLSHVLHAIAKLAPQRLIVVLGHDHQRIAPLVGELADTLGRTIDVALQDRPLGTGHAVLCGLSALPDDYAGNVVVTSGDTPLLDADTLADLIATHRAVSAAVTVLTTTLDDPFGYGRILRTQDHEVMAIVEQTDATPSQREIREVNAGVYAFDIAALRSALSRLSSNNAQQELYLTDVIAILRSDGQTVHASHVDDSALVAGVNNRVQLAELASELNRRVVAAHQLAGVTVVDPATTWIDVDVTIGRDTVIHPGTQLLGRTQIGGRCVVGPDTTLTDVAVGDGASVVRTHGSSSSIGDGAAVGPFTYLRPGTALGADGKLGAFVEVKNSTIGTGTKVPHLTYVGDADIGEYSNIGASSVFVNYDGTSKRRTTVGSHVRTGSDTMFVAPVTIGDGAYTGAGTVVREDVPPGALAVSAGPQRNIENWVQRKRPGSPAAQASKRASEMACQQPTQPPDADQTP

With `O=C(O)Cc1ccc(C(=O)CSc2nccc(-c3cccs3)n2)s1` [TPSA, 2-[5-(2-{[4-(2-thienyl)-2-pyrimidinyl]sulfanyl}acetyl)-2-thienyl]acetic acid], half-maximal inhibition (IC50) required 5.3 ± 0.48 µM.
